ChEMBL document CHEMBL5104103 (J Med Chem, 2022)

Columns and labels:
[1] = Toxicity in male Beagle dog assessed as drug tolerance up to 400 mg/kg/day qd for 12 weeks; type: organism-based, Canis lupus familiaris; details: in vivo, 2016 h
[2] = target: Tyrosine-protein kinase Blk (Homo sapiens, UniProt P51451); experiment: Displacement of competitive tracer from BLK (unknown origin) assessed as target occupancy at […] preincubated for 15 mins measured for 24 hrs relative to control; details: dose 1.5 µM
[3] = target: T1, Cytoplasmic tyrosine-protein kinase BMX (Homo sapiens) (UniProt P51813); experiment: Displacement of competitive tracer from BMX (unknown origin) assessed as target occupancy at […] preincubated for 15 mins measured for 24 hrs relative to control; details: dose 1.5 µM
T1 sequence (whole entry): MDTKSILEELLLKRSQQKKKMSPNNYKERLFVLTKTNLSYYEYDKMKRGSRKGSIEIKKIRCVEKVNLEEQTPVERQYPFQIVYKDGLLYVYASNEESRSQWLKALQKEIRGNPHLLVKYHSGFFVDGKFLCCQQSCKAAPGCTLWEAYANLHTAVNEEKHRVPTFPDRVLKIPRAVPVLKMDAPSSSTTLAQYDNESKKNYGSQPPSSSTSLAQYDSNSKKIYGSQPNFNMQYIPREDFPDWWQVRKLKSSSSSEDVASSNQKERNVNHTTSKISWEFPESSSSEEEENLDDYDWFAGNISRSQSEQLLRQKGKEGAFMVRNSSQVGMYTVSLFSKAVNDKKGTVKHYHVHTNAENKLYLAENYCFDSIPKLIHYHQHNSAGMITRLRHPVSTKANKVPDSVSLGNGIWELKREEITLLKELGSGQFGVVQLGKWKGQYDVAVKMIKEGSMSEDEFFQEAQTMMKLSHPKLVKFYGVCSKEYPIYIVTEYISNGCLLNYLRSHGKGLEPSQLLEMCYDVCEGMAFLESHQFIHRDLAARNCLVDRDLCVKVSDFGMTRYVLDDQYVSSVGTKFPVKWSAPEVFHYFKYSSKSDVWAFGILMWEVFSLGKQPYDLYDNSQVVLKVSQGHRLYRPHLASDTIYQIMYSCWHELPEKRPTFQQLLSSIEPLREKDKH

Sequence of Tyrosine-protein kinase Blk (P51451 2-505 limits assumed): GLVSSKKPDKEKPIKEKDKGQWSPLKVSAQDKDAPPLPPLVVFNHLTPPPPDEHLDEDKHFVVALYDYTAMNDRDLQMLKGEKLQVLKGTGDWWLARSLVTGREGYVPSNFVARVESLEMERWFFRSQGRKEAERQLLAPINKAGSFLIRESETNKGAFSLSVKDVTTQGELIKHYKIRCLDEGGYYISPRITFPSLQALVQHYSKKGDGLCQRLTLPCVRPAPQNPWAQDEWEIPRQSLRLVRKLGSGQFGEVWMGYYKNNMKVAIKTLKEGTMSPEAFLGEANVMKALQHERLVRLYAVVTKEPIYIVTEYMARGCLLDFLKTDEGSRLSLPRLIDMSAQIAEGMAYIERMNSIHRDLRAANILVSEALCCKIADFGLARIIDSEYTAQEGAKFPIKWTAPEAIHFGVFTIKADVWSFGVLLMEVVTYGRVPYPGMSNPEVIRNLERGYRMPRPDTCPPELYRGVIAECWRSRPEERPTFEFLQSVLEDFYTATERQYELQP

Activity [2]: 1% | Activity [3]: 69%
SMILES: CC(C)(C)/C=C(\C#N)C(=O)N1CCC[C@@H](n2nc(-c3ccc(Oc4ccccc4)cc3F)c3c(N)ncnc32)C1 [ATUZABRUTINIB]
Activity [1]: Non-Toxic
